Values of other authors in patent US20190255075A1, “TREATMENT OF PROSTATE CANCER” (priority 2018, published 2019).

What was measured:
prostate cancer cells = settings: sirolimus used alone
[1] = system: hormone refractory prostate cancer; settings: single agent

Q: Which results are given for `CO[C@H]1C[C@@H]2CC[C@@H](C)[C@@](O)(O2)C(=O)C(=O)N2CCCC[C@H]2C(=O)O[C@H]([C@H](C)C[C@@H]2CC[C@@H](O)[C@H](OC)C2)CC(=O)[C@H](C)/C=C(\C)[C@@H](O)[C@@H](OC)C(=O)[C@H](C)C[C@H](C)/C=C/C=C/C=C/1C` [Sirolimus, sirolimus]?
A: effect on prostate cancer cells (prostate cancer cells): limited effects; patients with positive outcomes ([1]; of twelve evaluable patients with hormone refractory prostate cancer): two; decrease in PSA ([1]; one of the two responding patients, with partial radiographic response): 50%
